Results as given in patent publication US7776873B2, “Method for treating damage to gastric mucosa” (Yuhan Corporation, priority 2005, dated 2010).

Key:
[1] = test system: human gastric epithelial (AGS) cells infected with H. pylori (ATCC 43504); assay: Incidence of H. pylori-induced cell death (MTT assay-1); type: cell-based; details: 50 uM pretreatment for 16 hours, then 48-hour H. pylori infection, FIG. 1
Protocol: In order to determine cytoprotective properties of revaprazan against H. pylori infection, gastric mucosal cells were pretreated with revaprazan and rebamipide prior to H. pylori infection, and the incidence of cell death was measured. Rebamipide, known to have cytoprotective properties, was used as a control drug.
The human gastric epithelial (AGS, KCLB 21739) cells were seeded onto 96-well plate at 5×10^4 cells/ml and cultured in RPMI 1640 (Gibco BRL, Grand Island, N.Y., U.S.A.), supplemented with 100 units/mL penicillin, 100 ug/mL streptomycin, and 10% FBS (Fetal Bovine Serum). Revaprazan and rebamipide, dissolved in sterilized water, were added to AGS cells to reach a final concentration of 50 uM and the cells were incubated at 37° C. for 16 hours. To remove RPMI 1640 media, the plate was centrifuged at 24° C., 3000 rpm for 5 minutes and washed three times with PBS (137 mM NaCl, 2.7 mM KCl, 10 mM Na2HPO4, and 2 mM KH2PO4). For inoculation, H. pylori (ATCC 43504) cultures were resuspended in PBS and cocultured with AGS cells at a final concentration of 5×10^8 CFU/ml. After 48 hours of incubation at 37° C., the culture was centrifuged at 24° C., 3000 rpm for 5 minutes to remove the culture medium, i.e., RPMI 1640, and then total viable cell numbers were assessed by MTT (3-[4,5-dimethylthiazol-2-yl]-2,5-diphenyl tetrazolim bromide) assay method. 1 mg/ml of an MTT solution prepared by dissolving MTT (Amresco, Ohio, U.S.A.) in PBS (137 mM NaCl, 2.7 mM KCl, 10 mM Na2HPO4, and 2 mM KH2PO4) was added to each well (50 μl/well), followed by incubation at 37° C. for 4 hours. The supernatant was then removed by centrifugation at 24° C., 3000 rpm for 5 minutes and the formazan grains formed by the viable cells were dissolved in 99.5% dimethyl sulfoxide (DMSO) (Kanto, Tokyo, Japan) (50 μl/well), and the optical intensity was measured at 540 nm using an ELISA reader (TECAN, Maennedorf, Switzerland).

[2] = test system: rat gastric mucosal (RGM-1) cells; assay: Incidence of ethanol-induced cell death (MTT assay-2); type: cell-based; details: 50 uM pretreatment for 16 hours, then 200 mM ethanol for 16 hours, FIG. 2
Protocol: The rat gastric mucosal (RGM-1, RIKEN cell bank, Japan) cells were seeded onto 96-well plate at 5×10^4 cells/ml and cultured in DMEM-F12 (Gibco BRL, Grand Island, N.Y., U.S.A.), supplemented with 100 units/mL penicillin, 100 ug/mL streptomycin, and 10% FBS (Fetal Bovine Serum). […] To remove DMEM-F12 media, the plate was centrifuged at 24° C., 3000 rpm for 5 minutes and washed three times with PBS (137 mM NaCl, 2.7 mM KCl, 10 mM Na2HPO4, and 2 mM KH2PO4). Then, ethanol-containing media (200 mM ethanol-containing DMEM-F12, supplemented with 100 units/mL penicillin, 100 ug/mL streptomycin, and 10% FBS) was added to the cells, and the cells were cultured at 37° C. for 16 hours. After the incubation, the culture was centrifuged at 24° C., 3000 rpm for 5 minutes to remove the culture medium and then total viable cell numbers were assessed by MTT (3-[4,5-dimethylthiazol-2-yl]-2,5-diphenyl tetrazolim bromide) assay method. 1 mg/ml of an MTT solution prepared by dissolving MTT (Amresco, Ohio, U.S.A.) in PBS (137 mM NaCl, 2.7 mM KCl, 10 mM Na2HPO4, and 2 mM KH2PO4) was added to each well (50 μl/well), followed by incubation at 37° C. for 4 hours. The supernatant was then removed by centrifugation at 24° C., 3000 rpm for 5 minutes and the formazan grains formed by the viable cells were dissolved in 99.5% dimethylsulfoxide (DMSO) (Kanto, Tokyo, Japan) (50 μl/well), and the optical intensity was measured at 540 nm using an ELISA reader (TECAN, Maennedorf, Switzerland).

[3] = test system: indomethacin-induced gastric mucosal lesions; assay: Preventive effect on NSAID-induced gastropathy; type: in vivo, Sprague Dawley male rats; details: rats, oro-gastric pretreatment (revaprazan 5, 10 mg/kg; rebamipide 30 mg/kg; omeprazole 5 mg/kg) prior to indomethacin 40 mg/kg for 12 hrs, FIG. 8
Protocol: Six-week old specific-pathogen-free (SPF) Sprague Dawley male rats (Charles River, Tokyo, Japan) were used for experiments. The rats were fed a sterilized commercial pellet diet (Biogenomics Co., Seoul, Korea), given sterile water ad libitum, and housed in air-conditioned biohazard room with a 12-h light:12-h dark cycle. The rats were food-deprived 24 hours, and then administered with 5, 10 mg/kg revaprazan, 30 mg/kg rebamipide and 5 mg/kg omeprazole suspended in 0.5% CMC (carboxymethylcellulose) via oro-gastric tube prior to exposure to indomethacin (40 mg/kg for 12 hrs). Phosphate-buffered saline was perfused into the gastric lumen of the rats to swell the stomachs. Then, the stomachs were opened by an incision along the greater curvature, and the total area of the gastric mucosal lesions was calculated to obtain the average size of the lesions.

SMILES: O=C(NC(Cc1cc(=O)[nH]c2ccccc12)C(=O)O)c1ccc(Cl)cc1 (stereo not drawn) [rebamipide, reference compound]
- gastric mucosal cytotoxicity by H. pylori infection [1]: significantly reduced
- ethanol-induced gastric mucosal cytotoxicity [2]: significantly reduced
- hemorrhagic gastric mucosal lesions after pretreatment [3]: hemorrhagic lesions are observed
